Assay results from US20260174739A1 (priority 2022, published 2026).

Assay: In vivo metabolism (pharmacokinetic) experiment in mice
Design: species or system male ICR mice
Conditions: male, ICR, mouse, po, 10 mg/kg, male ICR mice
How it was run: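 Fasted (12 h) male ICR mice received compound in 5% DMSO/5% Solutol HS15/90% saline at 2.5 mg/kg iv or 10 mg/kg po. Plasma and brain sampled 0.083–8 h (n=3 per time point) and analysed by LC-MS/MS. Parameters derived by non-compartmental analysis.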

Question: With CCNC1(c2ccccc2)CCc2nc(N)sc2C1 (racemic) [rac-A5, N^6-ethyl-6-phenyl-4,5,6,7-tetrahydrobenzothiazole-2,6-diamine] as the molecule, how does the bioavailability (oral 10 mg/kg vs iv 2.5 mg/kg, read-out: F (%)) read?
Answer: 63%

Question: And the AUC(0-inf) (oral 10 mg/kg, plasma, read-out: AUC0-inf(po))?
Answer: 1010 ng·h/mL

Question: And the Cmax (oral 10 mg/kg, plasma, read-out: Cmax (po))?
Answer: 250 ng/mL

Question: What about the half-life (oral 10 mg/kg, plasma, read-out: T1/2 (po) (converted)) of the same molecule?
Answer: 2.43 h
